According to US20050233457A1, “Recombining viral vectors for the tetracycline-regulated expression of genes” (priority 2002, published 2005):

Tested on: HT29 colon carcinoma cells
Assay: Luciferase expression in lysates of adenovirally infected HT29 cells
Assay type: cell-based, human
Conditions: HT29, Ad.3r-luc m.o.i. 30, 24 hours
Protocol: […], Colo205, SkCO-1, AsPc-1, HepG2, MCF-7, BT-20, HeLa, RT4 and U266 cells were seeded in six and twelve (U266) vial-plates at a concentration of 1×10^6 cells per cavity for 6 hours before transfection. The larger HeLa, RT-4 and 293 cells were seeded in a concentration of 5×10^5 cells per vial. U266 myeloma cells were allowed to grow in suspension culture and infected. Purified viral particles were diluted in media without supplementation and the cells were exposed to 500 μl of the suitable virus dilution per vial for 1 hour. After removal of the infectious supernatant, complete media which had been supplemented with different concentrations of doxycycline, were added. The media were changed every 24 hours.
24 hours after infection with Ad.CMV-luc or Ad.3r-luc, the cells were harvested with 150 μl of cell culture lysis reagent according to the manufacturer's (Promega) instructions. The luciferase activity in 20 μl of cell lysate was measured using a Bertold LB9507 luminometer and luciferase assay substrate (Promega). […] The protein concentration was determined using the DC protein assay kit (BioRad, Hercules, Calif.).
Human colon carcinoma cells HT29 are extremely receptive for adenoviral transduction, as has been shown previously (A. Block et al. Cancer Gene Therapy 7 (2000) 438-445). […] The luciferase activity was determined in cell lysates in relation to the dissolved cell protein. […]

For `C[C@H]1c2cccc(O)c2C(=O)C2=C(O)[C@]3(O)C(=O)C(C(N)=O)=C(O)[C@@H](N(C)C)[C@@H]3[C@@H](O)[C@@H]21` [doxycycline], the “doxycycline concentration leading to a significant reduction in gene expression” value was 100 pg/mL.
